Results published in patent publication EP2402357B1, “Analogs of 2',3'-dideoxy-3'-fluorothymidine 5'-monophosphate (FLTMP) for use in the treatment of infections caused by human HIV-1 strains” (priority 2010, dated 2012).
Counter-ions that a name gives are not always drawn.

Key:
Test in all cases: Antiviral activity in deCIPhR cellular system (replicative phenotyping, β-galactosidase indicator cell line)
Assay type in all cases: cell-based
Conditions in all cases: Human immunodeficiency virus 1
HIV-1 mutant GQ (MDR) = test system: HIV-1 mutant GQ (MDR)
From the text: (§1) Fully infectious virus HIV-1 was produced from cloned proviral DNA reference coding either for wild-type HIV-1 or from drug-resistant virus following transfection of proviral DNA into recipient mammalian cells. Subsequent to viral protein expression and particle formation, culture supernatant was harvested and used to infect an indicator cell line. This latter cell line expresses all necessary receptors and co-receptors for HIV infection as well as the bacterial gene LacZ coding for β-galactosidase under the control of the HIV-1 long terminal repeat. In this system, amount of β-galactosidase is directly proportional to the extent of viral replication. Activity of β-galactosidase is assayed in presence of a colorless substrate which upon enzymatic conversion yields a yellow product absorbing at 405 nm. Next, variation in colorimetric readout in presence of test compounds was translated in percent viral inhibition following normalization according to absorbance values of positive (presence of anti-HIV drug) and negative (untreated) control wells included in each 96 well-plate. For determining effective concentration 50 % (EC50), test compounds were assayed across a range of concentrations. Percent inhibition data in function of drug concentration were processed by a statistical curve fitting software yielding a modeled curve from which EC50 was extrapolated.

HIV-1 mutant K103N = test system: HIV-1 mutant K103N
From the text: as §1

HIV-1 mutant K65R = test system: HIV-1 mutant K65R
From the text: as §1

HIV-1 mutant M184V = test system: HIV-1 mutant M184V
From the text: as §1

HIV-1 mutant M4 = test system: HIV-1 mutant M4
From the text: as §1

HIV-1 wild type pNL4-3 = test system: HIV-1 wild type pNL4-3
From the text: as §1

In the case of Cc1cn([C@H]2C[C@H](F)[C@@H](COP(=O)(O)O)O2)c(=S)[nH]c1=O [Example 2-SFLTMP, 1-(2-deoxy-3-fluoro-β-D-ribofuranosyl)-2-thiothymine 5'-monophosphate disodium salt], the EC50 (HIV-1 mutant GQ (MDR)) is reported as 2850 nM, the EC90 (HIV-1 mutant GQ (MDR)) is reported as 4530 nM and the EC50 (HIV-1 mutant K103N) is reported as 114 nM. It also gave an EC90 (HIV-1 mutant K103N) of 978 nM, an EC50 (HIV-1 mutant K65R) of 504 nM and an EC90 (HIV-1 mutant K65R) of 4340 nM. For the same compound, the EC50 (HIV-1 mutant M184V) was 144 nM, the EC90 (HIV-1 mutant M184V) was 3260 nM and the EC50 (HIV-1 mutant M4) was 392 nM. It also gave an EC90 (HIV-1 mutant M4) of 3680 nM, an EC50 (HIV-1 wild type pNL4-3) of 224 nM and an EC90 (HIV-1 wild type pNL4-3) of 2580 nM.

For Cc1cn([C@H]2C[C@H](F)[C@@H](COP(=O)(O)O)O2)c(=O)[nH]c1=S [Example 4-SFLTMP, 1-(2-deoxy-3-fiuoro-β-D-ribofuranosyl)-4-thiothymine 5'-monophosphate disodium salt], the EC50 (HIV-1 mutant GQ (MDR)) was 48 nM, the EC90 (HIV-1 mutant GQ (MDR)) was 1800 nM and the EC50 (HIV-1 mutant K103N) was 11 nM. For the same compound, the EC90 (HIV-1 mutant K103N) was 50 nM, the EC50 (HIV-1 mutant K65R) was 96 nM and the EC90 (HIV-1 mutant K65R) was 338 nM. For the same compound, the EC50 (HIV-1 mutant M184V) was 43 nM, the EC90 (HIV-1 mutant M184V) was 425 nM and the EC50 (HIV-1 mutant M4) was 31 nM. For the same compound, the EC90 (HIV-1 mutant M4) was 381 nM, the EC50 (HIV-1 wild type pNL4-3) was 24 nM and the EC90 (HIV-1 wild type pNL4-3) was 166 nM.

Cc1cn([C@H]2C[C@H](F)[C@@H](CO)O2)c(=O)[nH]c1=O [FLT, 2',3'-Dideoxy-3'-fluorothymidine] showed an EC50 (HIV-1 mutant GQ (MDR)) of 131 nM, an EC90 (HIV-1 mutant GQ (MDR)) of 1300 nM and an EC50 (HIV-1 mutant K103N) of 18 nM. The EC90 (HIV-1 mutant K103N) was 71 nM, the EC50 (HIV-1 mutant K65R) was 32 nM and the EC90 (HIV-1 mutant K65R) was 96 nM. For the same compound, the EC50 (HIV-1 mutant M184V) was 27 nM, the EC90 (HIV-1 mutant M184V) was 119 nM and the EC50 (HIV-1 mutant M4) was 16 nM. For the same compound, the EC90 (HIV-1 mutant M4) was 118 nM, the EC50 (HIV-1 wild type pNL4-3) was 21 nM and the EC90 (HIV-1 wild type pNL4-3) was 210 nM.
